Assay results as given in patent US5707615A, “Method of treating HIV infections with anti-viral formulations” (Merrell Pharmaceuticals Inc., priority 1997, dated 1998).
Read-outs that look alike come from different tables or passages of the source.

How the values were obtained:
[1] = test system: HIV (Strain RF); assay: Anti-HIV activity in C8166 cells infected with HIV strain RF: syncytia and p24 (Example VI); type: cell-based; details: for p24 % of VIRUS CONTROL: 2880 min
Procedure: Protocol: C8166 cells were infected with HIV (Strain RF) for 1 hour at room temperature to give a multiplicity of infection of approximately 0.01 infectious units per cell.

[2] = test system: HIV (Strain GB8); assay: JM cells infected with HIV strain GB8: syncytia and p24 (Example VII); type: cell-based; details: for p24 3 days p.i.: supernatant screened at 1/100 dilution
Procedure: JM cells were infected with HIV (Strain GB8) to give approximately 200 syncytia/1×10^5 cells after 3 days; virus infection was for 1 hour at room temperature.

[3] = test system: HIV-I (GB8); assay: Pretreatment of JM cells and block of HIV-I (GB8) infection (Example IV); details: pretreated overnight at 20 μg/mL
[4] = test system: HIV strain RF; assay: Ability to prevent virus-induced cell death using MT4 cells and strain RF (Example III); type: cell-based; details: MT4 cells, 7 days, MTT, 10080 min
Procedure: (§1) Various oligomers were dissolved in RPMI and were then assayed for anti-HIV activity by making doubling dilutions of the solutions across a 96 well microtitre plate. To each well were then added 5×10^4 cells and 100 TCID50 of virus and the plates incubated at 37° C. for 7 days. MTT was added to each well and the plates incubated for a further 2 hours. The blue formazan crystals were dissolved using acidic isopropanol, and the absorbance measured at 540 nm.

[5] = test system: MT4 cells; assay: Toxicity to MT4 cells (TD50, Table IV, MTT); type: cell-based; details: MT4 cells, 7 days, MTT
Procedure: as §1

[6] = test system: HIV-I (RF); assay: Effect of treating HIV-I (RF)-infected cells (C8166) 24 hours post-infection (Example V, Table VII); details: for P24 DAY 6 p.i. / SYNCYTIA/WELL DAY 2 / SYNCYTIA/WELL DAY 3: 10 μM; for activity at 10 µM: Human immunodeficiency virus 1, C8166, 144 h, read-out: P24 % CONTROL, 10 μM
Procedure: Cells were infected with strain RF or GB8 for 24 hours at 37° C. at a multiplicity of infection of 0.001. Cells were washed three times to remove residual virus and then replated into fresh growth medium. Cells were then treated for 24 and 48 hours post-infection (p.i.) with the indicated concentrations of test compounds. Syncytia and P24 antigen levels were determined on the indicated days p.i. by methods described before.

[7] = test system: GB8 virus in JM cells; assay: Virus infection of JM cells with GB8 in the presence of test compounds: syncytia and P24 (Example II); details: for SYNCYTIA % / P24 %: % of control; for SYNCYTIA %: 2880 min; for P24 %: 5760 min
Procedure: Virus infection of JM cells was carried out in the presence of different concentrations of test compounds. JM cells (1×10^5) and 50-100 syncytial forming units of virus (GB8) were added to duplicate wells of a tissue culture plate containing 1 mL volumes of growth medium with or without drug. The plate was incubated for 2 days at 37° C. and then scored for the presence of syncytia. At the same time the cells were washed and the growth medium replaced. After a further two days incubation, the cell free supernatant fluids were harvested and assayed for levels of P24 viral core antigen using the Coulter™ HIV Antigen assay.

poly{oxy[2,2'-disulfo(1,1'-biphenyl)-4,4'-diyl]oxy-carbonyl-1,4-phenylenecarbonyl}- [Example 6]
p24 Day 2 ([1]; 12 μg/ml): neg
p24 % of VIRUS CONTROL ([1]; 12 μg/ml): 0%
p24 Day 2 ([1]; 25 μg/ml): neg
p24 % of VIRUS CONTROL ([1]; 25 μg/ml): 0%
SYNCYTIA Day 2 ([1]; 50 μg/ml): 0
p24 Day 2 ([1]; 50 μg/ml): neg
p24 % of VIRUS CONTROL ([1]; 50 μg/ml): 0%
SYNCYTIA Day 2 ([1]; 100 μg/ml): 0
p24 Day 2 ([1]; 100 μg/ml): neg
p24 % of VIRUS CONTROL ([1]; 100 μg/ml): 0%
MEAN SYNCYTIA 3 days p.i. ([2]; 25 μg/ml): 25
p24 3 days p.i. ([2]; 25 μg/ml): 6800 pg/mL
MEAN SYNCYTIA 3 days p.i. ([2]; 50 μg/ml): 12
p24 3 days p.i. ([2]; 50 μg/ml): neg
MEAN SYNCYTIA 3 days p.i. ([2]; 100 μg/ml): 0
p24 3 days p.i. ([2]; 100 μg/ml): neg
MEAN SYNCYTIA 3 days p.i. ([2]; 200 μg/ml): 0

poly[oxy(2,5-disulfo-1,4-phenylene)oxycarbonyl], alpha-[(4-methylphenoxy)carbonyl]-omega-(4-methylphenoxy)- [Example 4]
p24 Day 2 ([1]; 12 μg/ml): 3050 pg/mL
p24 % of VIRUS CONTROL ([1]; 12 μg/ml): 95%
p24 Day 2 ([1]; 25 μg/ml): 4820 pg/mL
p24 % of VIRUS CONTROL ([1]; 25 μg/ml): 100%
p24 Day 2 ([1]; 50 μg/ml): 2820 pg/mL
p24 % of VIRUS CONTROL ([1]; 50 μg/ml): 88%
p24 Day 2 ([1]; 100 μg/ml): 1930 pg/mL
p24 % of VIRUS CONTROL ([1]; 100 μg/ml): 60%
MEAN SYNCYTIA 3 days p.i. ([2]; 25 μg/ml): 95
p24 3 days p.i. ([2]; 25 μg/ml): 6500 pg/mL
MEAN SYNCYTIA 3 days p.i. ([2]; 50 μg/ml): 64
p24 3 days p.i. ([2]; 50 μg/ml): neg
MEAN SYNCYTIA 3 days p.i. ([2]; 100 μg/ml): Toxic
MEAN SYNCYTIA 3 days p.i. ([2]; 200 μg/ml): Toxic

Dextran Sulfate [reference compound]
P24 [3]: 28710 pg/mL
MEAN SYNCYTIA ([3]; 2 days): 184
P24 % ([3]; % of control, 2880 min): 101%
SYNCYTIA % ([3]; % of control, 2880 min): 155%

poly[imino(3-sulfo-1,4-phenylene)-1,2-ethenediyl-(2-sulfo-1,4-phenylene)iminocarbonyl], alpha-{[(4-methylphenyl)aminocarbonyl}-omega-[(4-methylphenyl)amino- [Example 2B]
ED50 [4]: 2.5 µg/mL
TD50 [5]: > 100 µg/mL

poly{oxy[2,2'-disulfo(1,1'-biphenyl)-4,4'-diyl]oxy-carbonyl}, alpha-[(4-methylphenoxy)carbonyl]-omega-(4-methylphenoxy)- [Example 5]
p24 Day 2 ([1]; 12 μg/ml): 3250 pg/mL
p24 % of VIRUS CONTROL ([1]; 12 μg/ml): 100%
p24 Day 2 ([1]; 25 μg/ml): 2320 pg/mL
p24 % of VIRUS CONTROL ([1]; 25 μg/ml): 73%
p24 Day 2 ([1]; 50 μg/ml): 2780 pg/mL
p24 % of VIRUS CONTROL ([1]; 50 μg/ml): 87%
p24 Day 2 ([1]; 100 μg/ml): 1060 pg/mL
p24 % of VIRUS CONTROL ([1]; 100 μg/ml): 33%
MEAN SYNCYTIA 3 days p.i. ([2]; 25 μg/ml): > 200
p24 3 days p.i. ([2]; 25 μg/ml): 67 pg/mL
MEAN SYNCYTIA 3 days p.i. ([2]; 50 μg/ml): 68
p24 3 days p.i. ([2]; 50 μg/ml): neg
MEAN SYNCYTIA 3 days p.i. ([2]; 100 μg/ml): 22
p24 3 days p.i. ([2]; 100 μg/ml): neg
MEAN SYNCYTIA 3 days p.i. ([2]; 200 μg/ml): 14
p24 3 days p.i. ([2]; 200 μg/ml): neg

poly{imino[2,2'-disulfo(1,1'-biphenyl)-4,4'-diyl]iminocarbonyl-1,4-phenylenecarbonyl}, alpha-{[(4-methylphenyl)amino]carbonyl}-omega-[(4-methylphenyl)amino]- [Example 8C]
ED50 [4]: 2.2 µg/mL
TD50 [5]: > 100 µg/mL

Nc1ccn([C@H]2CC[C@@H](CO)O2)c(=O)n1 [ddC, reference compound]
MEAN SYNCYTIA 3 days p.i. ([2]; 0.01 μg/ml): 80
p24 3 days p.i. ([2]; 0.01 μg/ml): 5400 pg/mL
MEAN SYNCYTIA 3 days p.i. ([2]; 0.1 μg/ml): 2
p24 3 days p.i. ([2]; 0.1 μg/ml): neg
MEAN SYNCYTIA 3 days p.i. ([2]; 1 μg/ml): 0
p24 3 days p.i. ([2]; 1 μg/ml): neg
MEAN SYNCYTIA 3 days p.i. ([2]; 10 μg/ml): 0
p24 3 days p.i. ([2]; 10 μg/ml): neg
P24 DAY 6 p.i. ([6]; addition 0 hours p.i.): 13000 pg/mL
SYNCYTIA/WELL DAY 2 ([6]; addition 0 hours p.i.): 0
SYNCYTIA/WELL DAY 3 ([6]; addition 0 hours p.i.): 0
P24 DAY 6 p.i. ([6]; addition 24 hours p.i.): 420000 pg/mL
activity at 10 µM ([6]; addition 0 hours p.i.): 1.4%
activity at 10 µM ([6]; addition 24 hours p.i.): 44.2%

poly[imino(2,5-disulfo-1,4-phenylene)iminocarbonyl], alpha-{[(4-methylphenyl)amino]carbonyl}-omega-[(4-methylphenyl)amino]- [Example 3B]
ED50 [4]: 1.7 µg/mL
TD50 [5]: > 100 µg/mL

poly[imino(3-sulfo-1,4-phenylene)-1,2-ethenediyl-(2-sulfo-1,4-phenylene)iminocarbonyl], alpha-{[(4-methylphenyl)aminocarbonyl}-omega-[(4-methylphenyl)amino- [Example 2A]
ED50 [4]: 1.9 µg/mL
TD50 [5]: > 100 µg/mL

poly[oxy(2,5-disulfo-1,4-phenylene)oxycarbonyl-1,4-phenylenecarbonyl]- [Example 7]
p24 Day 2 ([1]; 12 μg/ml): 3140 pg/mL
p24 % of VIRUS CONTROL ([1]; 12 μg/ml): 98%
p24 Day 2 ([1]; 25 μg/ml): 1450 pg/mL
p24 % of VIRUS CONTROL ([1]; 25 μg/ml): 45%
p24 Day 2 ([1]; 50 μg/ml): 870 pg/mL
p24 % of VIRUS CONTROL ([1]; 50 μg/ml): 27%
p24 Day 2 ([1]; 100 μg/ml): neg
p24 % of VIRUS CONTROL ([1]; 100 μg/ml): 0%
MEAN SYNCYTIA 3 days p.i. ([2]; 25 μg/ml): 43
p24 3 days p.i. ([2]; 25 μg/ml): neg
MEAN SYNCYTIA 3 days p.i. ([2]; 50 μg/ml): 24
p24 3 days p.i. ([2]; 50 μg/ml): neg
MEAN SYNCYTIA 3 days p.i. ([2]; 100 μg/ml): 7
p24 3 days p.i. ([2]; 100 μg/ml): neg
MEAN SYNCYTIA 3 days p.i. ([2]; 200 μg/ml): 0
p24 3 days p.i. ([2]; 200 μg/ml): neg

poly{imino[2,2'-disulfo(1,1'-biphenyl)-4,4'-diyl]iminocarbonyl-1,4-phenylenecarbonyl}, alpha-{[(4-methylphenyl)amino]carbonyl}-omega-[(4-methylphenyl)amino]- [Example 8A]
ED50 [4]: 1.5 µg/mL
TD50 [5]: > 100 µg/mL
P24 ([7]; Table II, 1 μg/mL): 4.3 × 10^4 units/mL
SYNCYTIA (2 DAYS) MEAN ([7]; Table II, 1 μg/mL): 3
SYNCYTIA % ([7]; Table II, 1 μg/mL): 7%
P24 % ([7]; Table II, 1 μg/mL): 12%
P24 ([7]; Table II, 3 μg/mL): 4.4 × 10^4 units/mL
SYNCYTIA (2 DAYS) MEAN ([7]; Table II, 3 μg/mL): 0
SYNCYTIA % ([7]; Table II, 3 μg/mL): 0%
P24 % ([7]; Table II, 3 μg/mL): 12%
SYNCYTIA (2 DAYS) MEAN ([7]; Table II, 10 μg/mL): 0
SYNCYTIA % ([7]; Table II, 10 μg/mL): 0%
SYNCYTIA (2 DAYS) MEAN ([7]; Table II, 30 μg/mL): 0
SYNCYTIA % ([7]; Table II, 30 μg/mL): 0%
SYNCYTIA (2 DAYS) MEAN ([7]; Table II, 100 μg/mL): 0
SYNCYTIA % ([7]; Table II, 100 μg/mL): 0%
P24 ([7]; Table III, 5 μg/mL): 268599 pg/mL
SYNCYTIA MEAN ([7]; Table III, 5 μg/mL): 35
SYNCYTIA % ([7]; Table III, 5 μg/mL): 51%
P24 % ([7]; Table III, 5 μg/mL): 81%
P24 ([7]; Table III, 50 μg/mL): 11600 pg/mL
SYNCYTIA MEAN ([7]; Table III, 50 μg/mL): 0
P24 % ([7]; Table III, 50 μg/mL): 3.5%
SYNCYTIA MEAN ([7]; Table III, 500 μg/mL): 0

Cc1cn([C@H]2C[C@H](N=[N+]=[N-])[C@@H](CO)O2)c(=O)[nH]c1=O [AZT, reference compound]
p24 Day 2 ([1]; 0.1 μg/ml): neg
SYNCYTIA Day 2 ([1]; 1 μg/ml): 0
p24 Day 2 ([1]; 1 μg/ml): neg
activity at 0.1 µg/mL ([1]; Human immunodeficiency virus 1, C8166, 48 h, 0.1 μg/ml, read-out: p24 % of VIRUS CONTROL): 0%
activity at 1 µg/mL ([1]; Human immunodeficiency virus 1, C8166, 48 h, 1 μg/ml, read-out: p24 % of VIRUS CONTROL): 0%
P24 DAY 6 p.i. ([6]; addition 0 hours p.i.): 10000 pg/mL
SYNCYTIA/WELL DAY 2 ([6]; addition 0 hours p.i.): 0
SYNCYTIA/WELL DAY 3 ([6]; addition 0 hours p.i.): 0
P24 DAY 6 p.i. ([6]; addition 24 hours p.i.): 44000 pg/mL
activity at 10 µM ([6]; addition 0 hours p.i.): 1.1%
activity at 10 µM ([6]; addition 24 hours p.i.): 4.6%

poly{imino[2,2'-disulfo(1,1'-biphenyl)-4,4'-diyl]iminocarbonyl-1,4-phenylenecarbonyl}, alpha-{[(4-methylphenyl)amino]carbonyl}-omega-[(4-methylphenyl)amino]- [Example 8B]
ED50 [4]: 2.1 µg/mL
TD50 [5]: > 100 µg/mL
